PubChem BioAssay (NCI)
Where “and” joins values, the source holds several entries; their conditions need not be identical. Equal values may be shown once.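 Exposure lasted 48 hours, with cells grown in 96-well plates and compounds tested at five concentrations. The concentration for 50% growth inhibition is given as GI50. Definition used: TGI = concentration required for complete inhibition of growth.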

Experiments:
Assay in all cases: DTP human tumour cell line panel, 48 h
SK-MEL-28 melanoma = system: SK-MEL-28 melanoma
DU-145 prostate = system: DU-145 prostate
OVCAR-5 ovarian = system: OVCAR-5 ovarian
A498 renal = system: A498 renal
UACC-257 melanoma = system: UACC-257 melanoma
EKVX NSCLC = system: EKVX NSCLC
NCI/ADR-RES ovarian = system: NCI/ADR-RES ovarian
NCI-H460 lung = system: NCI-H460 lung
U251 CNS = system: U251 CNS
LOX IMVI melanoma = system: LOX IMVI melanoma

SMILES | GI50 (SK-MEL-28 melanoma) | TGI (SK-MEL-28 melanoma) | GI50 (DU-145 prostate) | TGI (DU-145 prostate) | GI50 (OVCAR-5 ovarian) | TGI (OVCAR-5 ovarian) | GI50 (A498 renal) | TGI (A498 renal) | GI50 (UACC-257 melanoma) | TGI (UACC-257 melanoma) | GI50 (EKVX NSCLC) | TGI (EKVX NSCLC) | GI50 (NCI/ADR-RES ovarian) | TGI (NCI/ADR-RES ovarian) | GI50 (NCI-H460 lung) | TGI (NCI-H460 lung) | GI50 (U251 CNS) | TGI (U251 CNS) | GI50 (LOX IMVI melanoma) | TGI (LOX IMVI melanoma)
COc1cc(/C=C/C(=O)C(C(=O)/C=C/c2ccc(OC(=O)CCNc3nnc(C)s3)c(OC)c2)C(=O)CCNc2nnc(C)s2)ccc1OC(=O)CCNc1nnc(C)s1 | 1.75 µM | 4.02 µM | 2.27 µM | 5.61 µM | 2.89 µM | 7.12 µM | 2.51 µM | 6.67 µM | 2.64 µM | 8.31 µM | 3.8 µM | 14.8 µM | 3.87 µM | > 38.8 µM | 2.2 µM | 4.7 µM | 2.48 µM | 7.35 µM | 1.89 µM | 3.84 µM
Cc1ccc(/C=C/C(=O)c2ccc(N)cc2)c(C)c1 | 16.6 µM | 30.3 µM | 10.8 µM | 22.7 µM | 7.32 µM | 27.9 µM | 13.6 µM | 27.5 µM | 14.3 µM | 28.3 µM | 19.5 µM | 38.8 µM | 6.65 µM | > 100 µM | 14.7 µM | 33.8 µM | 6.5 µM | 19.3 µM | 0.321 µM | 1.18 µM
COc1cc2c3c(n(CCCNC(=O)OCC4c5ccccc5-c5ccccc54)c(=O)c2cc1OC)-c1cc2c(cc1C3=O)OCO2 | > 100 µM | > 100 µM | > 100 µM | > 100 µM | > 100 µM | > 100 µM | 24.9 µM | > 100 µM | > 100 µM | > 100 µM | > 100 µM | > 100 µM | > 100 µM | > 100 µM | 2.57 µM | > 100 µM | 1.67 µM | > 87.6 µM | 1.48 µM | > 37.1 µM
Cn1c(=O)c2[nH]c(C3CC(=O)CC(c4nc5c([nH]4)c(=O)n(C)c(=O)n5C)N3)nc2n(C)c1=O (centres undefined) | – | > 100 µM | – | > 100 µM | – | > 100 µM | – | > 100 µM | – | > 100 µM | – | > 100 µM | – | > 100 µM | – | > 100 µM | – | > 100 µM | – | > 100 µM
O=C1/C(=C/c2ccc(Cl)cc2)CN(Cc2cn(CCNc3ccnc4cc(Cl)ccc34)nn2)C/C1=C\c1ccc(Cl)cc1 | 1.4 µM | 2.81 µM | 0.426 µM | 1.38 µM | 0.612 µM | 1.62 µM | 1.14 µM | 2.37 µM | 1.59 µM | 3.02 µM | – | – | 0.406 µM | 2.24 µM | 0.247 µM | 0.602 µM | 0.185 µM | 0.391 µM | 0.189 µM | 0.35 µM
O=C1/C(=C/c2ccc([N+](=O)[O-])o2)Oc2ccccc21 | 1.65 µM | 3.2 µM | 1.91 µM | 3.73 µM | 1.85 µM | 3.5 µM | 1.93 µM | 4.4 µM | 1.68 µM | 3.5 µM | – | – | 3.08 µM | 11.7 µM | 1.91 µM | 4.09 µM | 1.96 µM | 4.66 µM | 1.42 µM | 2.93 µM
C=C(C)[C@@H]1CC[C@]2(C(=O)O)CC[C@]3(C)[C@H](CC[C@@H]4[C@@]5(C)C[C@@H](CC#Cc6ccc(Br)cc6)C(=O)C(C)(C)[C@@H]5CC[C@]43C)[C@@H]12 | 2.62 µM | 8.25 µM | 7.59 µM | > 100 µM | 94.3 µM | > 100 µM | 2.42 µM | 7.29 µM | > 100 µM | > 100 µM | – | – | 62.6 µM | > 100 µM | 5.71 µM | > 100 µM | 2.12 µM | 6.72 µM | 5.65 µM | > 100 µM
COc1ccc2c(c1)C(=O)/C(=C/c1ccc([N+](=O)[O-])s1)O2 | 0.248 µM | 0.689 µM | 1.79 µM | > 100 µM | 1.6 µM | 3.34 µM | 2.05 µM | 6.51 µM | 0.819 µM | 3.11 µM | – | – | 0.873 µM | > 100 µM | 0.411 µM | 1.64 µM | 0.287 µM | 0.943 µM | 0.256 µM | 0.637 µM
COc1ccc2cc3[n+](cc2c1OC)CCc1cc2c(cc1-3)OCO2 | 11.2 µM and 17.2 µM | – | – | > 100 µM | – | > 100 µM and 149 µM | – | > 307 µM | – | – | – | > 100 µM and 175 µM | > 100 µM and 323 µM | > 325 µM | 6.22 µM | – | – | – | – | > 201 µM
O=C1Nc2ccccc2/C1=C/c1cn(C(=O)c2c(Cl)cccc2Cl)c2ccccc12 | – | – | 2.72 µM | 9.24 µM | 8.85 µM | 50.1 µM | 1.25 µM | 4.32 µM | 5 µM | 24.8 µM | 2.83 µM | 16.3 µM | 3.4 µM | 18 µM | 2 µM | 3.97 µM | 3.47 µM | 15.5 µM | 1.59 µM | 3.24 µM
